Measured values published in patent US20260184708A1, “PYRIDAZINONES AND METHODS OF USE THEREOF” (GFB (ABC), LLC, priority 2017, published 2026).
Like-named read-outs stand apart in the source and are kept apart here.

Target: T1, TRPC5 (Homo sapiens, UniProt Q9UL62)
T1 construct: expressed in transfected cells; host or cells: HEK 293
T1 sequence (Q9UL62 1-973): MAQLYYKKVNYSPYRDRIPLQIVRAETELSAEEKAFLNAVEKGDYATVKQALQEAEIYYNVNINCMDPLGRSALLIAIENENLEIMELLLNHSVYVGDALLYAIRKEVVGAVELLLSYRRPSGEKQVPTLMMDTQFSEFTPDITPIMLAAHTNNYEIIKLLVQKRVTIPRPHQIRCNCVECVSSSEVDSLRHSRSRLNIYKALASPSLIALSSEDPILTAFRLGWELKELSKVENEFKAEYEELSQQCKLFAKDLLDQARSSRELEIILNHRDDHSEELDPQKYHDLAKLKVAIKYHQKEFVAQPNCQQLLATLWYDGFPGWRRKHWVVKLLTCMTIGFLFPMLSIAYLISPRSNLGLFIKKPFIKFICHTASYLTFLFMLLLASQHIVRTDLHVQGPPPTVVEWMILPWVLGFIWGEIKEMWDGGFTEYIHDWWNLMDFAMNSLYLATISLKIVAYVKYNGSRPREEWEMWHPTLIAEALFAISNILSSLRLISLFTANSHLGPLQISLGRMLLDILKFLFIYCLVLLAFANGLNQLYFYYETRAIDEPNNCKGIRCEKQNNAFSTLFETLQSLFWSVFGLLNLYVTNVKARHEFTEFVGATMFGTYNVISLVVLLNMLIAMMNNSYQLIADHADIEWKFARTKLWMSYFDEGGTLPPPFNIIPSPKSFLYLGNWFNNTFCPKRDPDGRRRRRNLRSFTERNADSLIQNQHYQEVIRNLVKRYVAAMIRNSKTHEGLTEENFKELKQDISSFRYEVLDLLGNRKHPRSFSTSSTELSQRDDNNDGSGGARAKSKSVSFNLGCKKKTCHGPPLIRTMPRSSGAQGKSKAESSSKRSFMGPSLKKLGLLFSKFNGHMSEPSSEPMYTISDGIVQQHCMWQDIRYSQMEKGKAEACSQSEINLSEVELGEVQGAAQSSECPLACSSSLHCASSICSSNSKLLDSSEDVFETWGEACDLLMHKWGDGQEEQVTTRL
Assay: TRPC5 Fluorescence Assay - FLIPR format (HEK-TREx hTRPC5, Riluzole stimulation)
Assay type: cell-based
Description: • Cell line: ICLN-001633 • Base Cell: HEK • Channel: TRPC5 • Species: Human • Thaw ID: multiple • Passage: multiple
FLIPR Assay Buffer (Earls Balanced Salt Solution (EBSS) was prepared as follows:
Test Agent Preparation: Compounds were made up to, or supplied as, a 10 mM stock solution generally using DMSO as the vehicle. 10-point dose response curves were generated using the Echo-550 acoustic dispenser. Compound source plates were made by serially diluting compound stocks to create 10 mM, 1 mM, and 0.1 mM solutions in DMSO into Echo certified LDV plates. The Echo then serially spotted 100% DMSO stock solutions into source dose response plates to generate a 4-fold dilution scheme. 100% DMSO was added to the spotted dose response plates to bring the final volume to 5 μl. […] of the dose response stock plate was then spotted into pre-incubation and stimulation assay plates. 50 μl of pre-incubation buffer and 100 μl of stimulation buffer was then added to the plates resulting in a final assay test concentration range of 30 μM to 0.0001 μM with a final DMSO concentration of 0.3%.
Experimental Methods: Cells expressing TRPC5 (HEK-TREx hTRPC5) are plated onto 384 well, black PDL-coated microplates and maintained in TRPC5 growth media the day prior to use for experiments. TRPC5 expression is induced by the application of […] tetracycline at the time of plating. Media is removed from the plates and 10 μl of 4 μM of Fluo-4 AM (mixed with equal volume of Pluronic F-127) in EBSS is added to the cells. Cells are incubated at room temperature, protected from light, for 60-90 minutes. After the incubation period, the dye is removed and replaced with 10 μl of EBSS. Cell, pre-incubation and stimulation plates are loaded onto the FLIPR-II and the assay is initiated. The FLIPR measures a 10 second baseline and then adds 10 μl of 2× compounds (or controls). Changes in fluorescence are monitored for an additional 5 minutes. After the 5 minute pre-incubation, 20 μl of 2× Riluzole (with 1× compound or controls) is added to the cell plate. The final Riluzole stimulation concentration in the assay is 30 μM. After the Riluzole addition, changes in fluorescence are monitored for an additional 5 minutes.
Test Agent Effect: Test agent modulation of TRPC5 calcium response was determined as follows. After the Riluzole, fluorescence was monitored for a 5 minute period. The maximum relative fluorescene response (minus the control response of 1 μM of the control inhibitor) was captured and exported from the FLIPR. Test agent effect was calculated as % inhibition using the following formula: % inhibition=((RFU Test Agent−Plate Average RFU REF INHIB)/(Plate Average RFU Control−Plate Average RFU REF INHIB))×100

[1] = Table 10, read-out: TRPCS-FLIPR IC50
[2] = Table 9, read-out: hTRPCS-FLIPR IC50

| SMILES | IC50 [1] [nM] | IC50 [2] [nM] |
| --- | --- | --- |
| [2H]c1nc2c(n1Cc1ccccc1C(F)(F)F)CCN(c1cn[nH]c(=O)c1Cl)C2 | 0.01 to 1000 |  |
| C[C@H](c1ccc(F)cc1C(F)F)n1nc(C(N)=O)c2c1CCN(c1cn[nH]c(=O)c1Cl)C2 | 0.01 to 1000 |  |
| C[C@@H](c1ccccc1C(F)(F)F)N1CCN(c2cn[nH]c(=O)c2Cl)CC1=O [drawing 1044] |  | 0.01 to 1000 |
| C[C@H](c1ccc(F)cc1C(F)(F)F)N1C[C@@H](C)N(c2cn[nH]c(=O)c2Cl)CC1=O [drawing 1048] |  | 0.01 to 1000 |
| COCc1ccccc1Cn1cnc2c1CCN(c1cn[nH]c(=O)c1Cl)C2 [drawing 1053] | 0.01 to 1000 |  |
| C[C@H](c1ccccc1C(F)(F)F)n1nnc2c1CCN(c1cn[nH]c(=O)c1Cl)[C@H]2C [drawing 1078] | 0.01 to 1000 |  |
| CCS(=O)(=O)c1nc2c(n1Cc1ccccc1C(F)(F)F)CCN(c1cn[nH]c(=O)c1Cl)C2 [drawing 1079] | 0.01 to 1000 |  |
| C[C@H](c1ccc(F)cc1C(F)(F)F)n1nnc2c1CCN(c1cn[nH]c(=O)c1Cl)[C@H]2C [drawing 1092] | 0.01 to 1000 |  |
| C[C@@H](c1ccccc1C(F)F)n1nnc2c1CCN(c1cn[nH]c(=O)c1Cl)C2 [drawing 1106] | 0.01 to 1000 |  |
| C[C@@H](c1ccc(F)cc1C(F)F)n1nnc2c1CCN(c1cn[nH]c(=O)c1Cl)C2 [drawing 1107] | 0.01 to 1000 |  |
| CNC(=O)c1nn([C@H](C)c2ccccc2C(F)F)c2c1CN(c1cn[nH]c(=O)c1Cl)CC2 [drawing 1113] | 0.01 to 1000 |  |
| C[C@@H]1Cc2c(c(C(N)=O)nn2Cc2ccccc2C(F)(F)F)CN1c1cn[nH]c(=O)c1Cl [drawing 1118] | 0.01 to 1000 |  |
| COC[C@H](c1ccccc1C(F)(F)F)n1cnc2c1CCN(c1cn[nH]c(=O)c1Cl)C2 [drawing 1120] | 0.01 to 1000 |  |
| C[C@@H](c1cccnc1CC(F)F)n1nnc2c1CCN(c1cn[nH]c(=O)c1Cl)C2 [drawing 1125] | 0.01 to 1000 |  |
| O=c1[nH]ncc(N2CCc3c(nnn3Cc3ccc(F)cc3CC(F)(F)F)C2)c1Cl [drawing 1131] | 0.01 to 1000 |  |
| NC(=O)c1nc2c(n1Cc1ccccc1C(F)(F)F)CCN(c1cn[nH]c(=O)c1Cl)C2 [drawing 1135] | 0.01 to 1000 |  |
| O=c1[nH]ncc(N2CCc3c(ncn3Cc3ccc(F)cc3Cl)C2)c1Cl [drawing 1136] | 0.01 to 1000 |  |
| O=c1[nH]ncc(N2CCc3c(ncn3Cc3ccccc3Cl)C2)c1Cl [drawing 1139] | 0.01 to 1000 |  |
| CS(=O)(=O)c1nc2c(n1Cc1ccccc1C(F)(F)F)CCN(c1cn[nH]c(=O)c1Cl)C2 [drawing 1142] | 0.01 to 1000 |  |
| CCN(c1ncc2c(n1)CN(c1cn[nH]c(=O)c1Cl)C2)c1ccccc1Cl [drawing 1148] | 0.01 to 1000 |  |
| CCc1ncccc1N(C)c1ncc2c(n1)CN(c1cn[nH]c(=O)c1Cl)C2 [drawing 1154] | 0.01 to 1000 |  |

Next, values leading:

| IC50 [1] [nM] | IC50 [2] [nM] | SMILES |
| --- | --- | --- |
|  | 0.01 to 1000 | C[C@@H](c1ccc(F)cc1C(F)(F)F)N1CCN(c2cn[nH]c(=O)c2Cl)CC1=O [drawing 1049] |
| 0.01 to 1000 |  | COCc1ncccc1Cn1cnc2c1CCN(c1cn[nH]c(=O)c1Cl)C2 [drawing 1065] |
| 0.01 to 1000 |  | C[C@@H]1Cc2c(nnn2[C@@H](C)c2ccccc2C(F)(F)F)CN1c1cn[nH]c(=O)c1Cl [drawing 1071] |
| 0.01 to 1000 |  | O=c1[nH]ncc(N2CCc3c(c(=O)[nH]n3Cc3ccccc3C(F)(F)F)C2)c1Cl [drawing 1081] |
| 0.01 to 1000 |  | C[C@@H]1Cc2c(nnn2[C@@H](C)c2ccc(F)cc2C(F)(F)F)CN1c1cn[nH]c(=O)c1Cl [drawing 1085] |
| 0.01 to 1000 |  | C[C@H](c1ccccc1C(F)F)n1nnc2c1CCN(c1cn[nH]c(=O)c1Cl)C2 [drawing 1100] |
| 0.01 to 1000 |  | CC(c1ccc(F)cc1C(F)F)n1nc(C(N)=O)c2c1CCN(c1cn[nH]c(=O)c1Cl)C2 (centres unmarked) [drawing 1114] |
| 0.01 to 1000 |  | CNC(=O)c1nn(Cc2ccc(F)cc2C(F)F)c2c1CN(c1cn[nH]c(=O)c1Cl)CC2 [drawing 1117] |
| 0.01 to 1000 |  | C[C@H](c1ccccc1C(F)(F)F)n1nc(C(N)=O)c2c1CCN(c1cn[nH]c(=O)c1Cl)C2 [drawing 1123] |
| 0.01 to 1000 |  | C[C@H](c1ccccc1Cl)n1nnc2c1CCN(c1cn[nH]c(=O)c1Cl)C2 [drawing 1133] |
| 0.01 to 1000 |  | CNC(=O)c1nc2c(n1Cc1ccccc1C(F)(F)F)CCN(c1cn[nH]c(=O)c1Cl)C2 [drawing 1134] |
| 0.01 to 1000 |  | C[C@@H](c1ccccc1Cl)n1nnc2c1CCN(c1cn[nH]c(=O)c1Cl)C2 [drawing 1140] |
| 0.01 to 1000 |  | CN(c1ncc2c(n1)CN(c1cn[nH]c(=O)c1Cl)C2)c1ccc(F)cc1Cl [drawing 1144] |
| 0.01 to 1000 |  | O=c1[nH]ncc(N2CCc3c(Cc4ccc(F)cc4C(F)(F)F)n[nH]c3C2)c1Cl [drawing 1153] |
